Laboratory results: patent publication US10688146B2, “Curcuma mangga val et. zipp. extract as a treatment to overcome prostate problems” (PT DEXA MEDICA, priority 2013, dated 2020)

What was measured:
[1] = test system: DHT; experiment: DHT quantification with Elisa kit in PC3 cells treated with excessive testosterone; format: cell-based, human; conditions: PC3 cells with excessive testosterone 8.8 μg/ml, finasteride 2 μg/ml (positive control)
Protocol: Total protein was isolated after 24 hours treatment with the extract of Curcuma mangga Val. et Zipp. The isolation was performed using Lysis Buffer and TRIzol method. The result of total protein isolation further was calculated using Lowry method. Protein that was obtained subsequently was used as a sample for Western Blot against 5-alpha-reductase and DHT, and the DHT test using Elisa kit Alpha Diagnostic International. The analytical process of semi-Western Blot was performed in accordance to the general method, which is using specific antibody for 5-alpha-reductase-1 and DHT. The detection of Western Blot was performed using HRP-conjugated (Horseradish Peroxidase) secondary antibody and coloring with luminol.
Quantitative analysis was performed using Elisa kit in accordance to the protocol provided by the manufacturer. PC3 cells that were used in this present invention was treated with excessive testosterone which is 8.8 μg/ml, and was treated with 150 μg/ml Curcuma mangga Val. et Zipp extract and 2 μg/ml finasteride, in separate groups. In this present invention, the finasteride treatment group was a positive control.

[2] = test system: male rats (Rattus norvegicus) Wistar strain with induced prostate gland growth; experiment: Inhibition of prostate gland growth in castrated, testosterone-induced rats; format: in vivo; conditions: finasteride 1 mg/kg
Protocol: Animals that were used in the present invention were male rats (Rattus norvegicus) Wistar strain weighing between 200-250 grams from Indoanilab, Bogor, Indonesia. The animals were bred in special cages, in groups, with a normal light setting, which are 12 hours of light and 12 hours of dark and received food and drinking water ad libitum.
The animals were divided into five groups: sham-operated group (normal group), negative control group that is BPH group without any treatment, positive control group that is treated with finasteride 1 mg/kg of body weight, and treatment group which divided into two groups based on the dose of Curcuma mangga Val. et Zipp. extract that they received, namely 92.37 mg/kg and 184.74 mg/kg of body weight. In all animals the growth of its prostate gland were induced, except for the animals in the sham-operated group.
Those rats were induced with subcutaneous administration of testosterone injection to stimulate the growth of prostate gland at the dose of 10 mg/kg body weight, every day for 7 days. The administration of testosterone injection was performed after the removal of testes (castration) and sham surgery in rats. The castration procedures were performed to avoid bias caused by the differences of testosterone amount produced by each individual rat.

CC(C)(C)NC(=O)[C@H]1CC[C@H]2[C@@H]3CC[C@H]4NC(=O)C=C[C@]4(C)[C@H]3CC[C@]12C [finasteride]
DHT levels (Elisa kit) [1]: reduced levels of DHT | DHT plasma concentration [2]: suppression of DHT plasma concentration
